The NIST ThermoML archive (doi:10.1016/j.jct.2009.11.012)
Numbers after ± are expanded uncertainties.

Columns and labels:
[1] = molar heat capacity at constant pressure; settings: 101.33 kPa, Small sample (50 mg) DSC
[2] = molar enthalpy of transition or fusion; settings: 298.15 K; Crystal 2; DSC
[3] = Molar enthalpy of transition or fusion; settings: Crystal 2; DSC
[4] = DTA

O=C(Nc1ccc(Cl)cc1)Nc1ccc(Cl)c(Cl)c1 [N-(4-chlorophenyl)-N'-(3,4-dichlorophenyl)urea]
[1]
Settings	molar heat capacity at constant pressure [J/K/mol]
263.15 K, Crystal 2	268.71 ± 5.5
265.15 K, Crystal 2	269.88 ± 5.5
270.15 K, Crystal 2	272.35 ± 5.5
275.15 K, Crystal 2	274.29 ± 5.6
280.15 K, Crystal 2	276.34 ± 5.6
285.15 K, Crystal 2	278.5 ± 5.6
290.15 K, Crystal 2	280.82 ± 5.6
295.15 K, Crystal 2	282.87 ± 5.7
298.15 K, Crystal 2	284.13 ± 5.7
300.15 K, Crystal 2	285.18 ± 5.7
305.15 K, Crystal 2	287.71 ± 5.7
310.15 K, Crystal 2	290.49 ± 5.7
315.15 K, Crystal 2	290.67 ± 5.7
320.15 K, Crystal 2	294.23 ± 5.8
325.15 K, Crystal 2	294.87 ± 5.8
330.15 K, Crystal 2	297.95 ± 5.8
335.15 K, Crystal 2	299.93 ± 5.8
340.15 K, Crystal 2	302.05 ± 5.8
345.15 K, Crystal 2	304.25 ± 5.9
350.15 K, Crystal 2	307.35 ± 5.9
355.15 K, Crystal 2	310.57 ± 5.9
360.15 K, Crystal 2	313.61 ± 6
365.15 K, Crystal 2	316.56 ± 6
370.15 K, Crystal 2	318.53 ± 6
375.15 K, Crystal 2	320.86 ± 6
380.15 K, Crystal 2	322.77 ± 6.1
385.15 K, Crystal 2	325.84 ± 6.1
390.15 K, Crystal 2	328.48 ± 6.1
395.15 K, Crystal 2	330.98 ± 6.2
400.15 K, Crystal 2	333.62 ± 6.2
405.15 K, Crystal 2	335.55 ± 6.2
410.15 K, Crystal 2	339.3 ± 6.2
475.15 K, Crystal 1	432.35 ± 18
480.15 K, Crystal 1	436.61 ± 19
485.15 K, Crystal 1	444.02 ± 19
490.15 K, Crystal 1	452.78 ± 19
495.15 K, Crystal 1	464.93 ± 20

Settings	Molar enthalpy of transition or fusion [kJ/mol]	molar enthalpy of transition or fusion [kJ/mol]
[2]	–	182 ± 4.7
[3]	6.1 ± 0.3	–

[4]
Settings	Normal melting temperature [°C]	Triple point temperature [K]
Crystal 1	254.4 ± 0.9	–
Crystal 2	–	428 ± 2
